From patent US20240254129A1, “HETEROCYCLIC COMPOUNDS AND USES THEREOF” (Kumquat Biosciences Inc., priority 2021, published 2024)

What was measured:
[1] = target: GST-tagged K-Ras mutant / His-tagged hSOS1 (Homo sapiens, UniProt P01116); assay: HTRF assay, K-Ras mutant / SOS1 interaction; assay type: binding; conditions: compound nos. 401-703; read-out: IC50 against mutant Kras
How it was run: (§1)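 GST-tagged K-Ras (mutant or wildtype) with anti-GST-Eu donor was mixed with His-hSOS1 and anti-6His-XL665 acceptor in HEPES pH 7.4 buffer with NaCl, DTT, BSA and Igepal. After ≥10 min, HTRF was read (ex 337 nm, em 620/665 nm); 665/620 ratios gave IC50 from duplicate dilution series.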

wildtype Kras / hSOS1 = target: T1, wildtype Kras / hSOS1 (Homo sapiens, UniProt P01116); assay: HTRF assay, wildtype Kras / SOS1 interaction; assay type: binding; conditions: compound nos. 401-703; read-out: IC50 against wildtype Kras
T1 construct: made in house; host or cells: E. coli BL21 (DE3)
T1 sequence (P01116 1-188 isoform P01116-2): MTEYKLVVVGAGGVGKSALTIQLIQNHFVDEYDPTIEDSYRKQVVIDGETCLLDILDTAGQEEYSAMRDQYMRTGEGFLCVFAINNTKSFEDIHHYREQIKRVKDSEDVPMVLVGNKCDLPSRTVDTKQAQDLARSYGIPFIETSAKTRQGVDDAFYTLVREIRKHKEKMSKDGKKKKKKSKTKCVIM
How it was run: as §1

GST-tagged K-Ras mutant / His-tagged hSOS1, sequence (P01116 whole entry G12D, form open): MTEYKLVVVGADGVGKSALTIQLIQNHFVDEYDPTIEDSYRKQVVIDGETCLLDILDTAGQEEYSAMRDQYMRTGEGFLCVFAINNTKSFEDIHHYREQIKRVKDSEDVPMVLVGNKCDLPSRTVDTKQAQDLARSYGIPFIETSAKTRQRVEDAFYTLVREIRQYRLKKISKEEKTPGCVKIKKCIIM

Compound | IC50 [1] [nM] | IC50 (wildtype Kras / hSOS1) [nM]
Nc1nc2c(-c3c(Cl)cc4c(N5CCC6CCC(C5)N6)nc(OCC56CCCN5CCC6)nc4c3F)ccc(F)c2s1 (stereo not drawn) [Compound 494, 4-(4-(3,9-diazabicyclo-[4.2.1]nonan-3-yl)-6-chloro-8-fluoro-2-((tetrahydro-1H-pyrrolizin-7a(5H)-yl)meth-oxy)quinazolin-7-yl)-7-fluorobenzo[d]thiazol-2-amine] | < 500 | < 500
N#C/C=C/c1cc2c(N3CC4CCC(C3)N4)nc(OC[C@@]34CCCN3C[C@H](F)C4)nc2c(F)c1-c1ccc(F)c2sc(N)nc12 [Compound 495, (E)-3-(7-(2-amino-7-fluoro-benzo[d]thiazol-4-yl)-4-(3,8-diazabicyclo[3.2.1]octan-3-yl)-8-fluoro-2-(((2R,7aS)-2-fluorotetrahydro-1H-pyrrol-izin-7a(5H)-yl)methoxy)-quinazolin-6-yl)acrylonitrile] | > 500 | < 500
N#CCCc1cc2c(N3CC4CCC(C3)N4)nc(OC[C@@]34CCCN3C[C@H](F)C4)nc2c(F)c1-c1ccc(F)c2sc(N)nc12 [Compound 496, 3-(7-(2-amino-7-fluoroben-zo[d]thiazol-4-yl)-4-(3,8-diazabicyclo[3.2.1]octan-3-yl)-8-fluoro-2-(((2R,7aS)-2-fluorotetrahydro-1H-pyrrol-izin-7a(5H)-yl)methoxy)-quinazolin-6-yl)propane-nitrile] | < 500 | < 500
Nc1cc(-c2ccc3c(N4CC5CCC(C4)N5)nc(OCC45CCCN4CCC5)nc3c2F)c2c(Cl)cccc2n1 [Compound 498, 4-(4-(3,8-diazabicyclo-[3.2.1]octan-3-yl)-8-fluoro-2-((tetrahydro-1H-pyrrol-izin-7a(5H)-yl)methoxy)-quinazolin-7-yl)-5-chloro-quinolin-2-amine] | > 500 | < 500
Nc1nc2c(-c3c(Cl)cc4c(N5CCCCCC5)nc(OC[C@@]56CCCN5C[C@H](F)C6)nc4c3F)ccc(F)c2s1 [Compound 499, 4-(4-(azepan-1-yl)-6-chloro-8-fluoro-2-(((2R,7aS)-2-fluorotetrahydro-1H-pyrrol-izin-7a(5H)-yl)methoxy)-quinazolin-7-yl)-7-fluoro-benzo[d]thiazol-2-amine] | < 500 | < 500
N#Cc1c(N)sc2c(F)ccc(-c3c(Cl)cc4c(N5CC6CCC(C5)N6CC5CC5)nc(OC[C@@]56CCCN5C[C@H](F)C6)nc4c3F)c12 [Compound 500, 2-amino-4-(6-chloro-4-((1R,5S)-8-(cyclopropyl-methyl)-3,8-diazabicyclo-[3.2.1]octan-3-yl)-8-fluoro-2-(((2R,7aS)-2-fluorotetra-hydro-1H-pyrrolizin-7a(5H)-yl)methoxy)quin-azolin-7-yl)-7-fluorobenzo-[b]thiophene-3-carbonitrile] | < 500 | < 500
CN(C)CC1(COc2nc(N3CC4CCC(C3)N4)c3ccc(-c4cc(O)cc5ccccc45)c(F)c3n2)CC1 [Compound 501, 4-(4-(3,8-diazabicyclo-[3.2.1]octan-3-yl)-2-((1-((dimethylamino)methyl)-cyclopropyl)methoxy)-8-fluoroquinazolin-7-yl)naph-thalen-2-ol] | < 500 | > 500
Nc1nc2cc(-c3c(Cl)cc4c(N5CC6CCC(C5)N6)nc(OCC56CCCN5CCC6)nc4c3F)ccc2o1 [Compound 502, 5-(4-(3,8-diazabicyclo-[3.2.1]octan-3-yl)-6-chloro-8-fluoro-2-((tetrahydro-1H-pyrrolizin-7a(5H)-yl)meth-oxy)quinazolin-7-yl)benzo-[d]oxazol-2-amine] | > 500 | > 500
CN(C)C1CN(c2nc(N3CC4CCC(C3)N4)c3cc(Cl)c(-c4ccc(F)c5sc(N)nc45)c(F)c3n2)C1 [Compound 503, 4-(4-(3,8-diazabicyclo-[3.2.1]octan-3-yl)-6-chloro-2-(3-(dimethyl-amino)azetidin-1-yl)-8-fluoroquinazolin-7-yl)-7-fluorobenzo[d]thiazol-2-amine] | > 500 | > 500
